Test results reported in US20140228407A1, “TETRA-PYRIDINE COMPOUNDS AND COMPOSITION FOR PROTECTING CELLS, TISSUES AND ORGANS AGAINST ISCHEMIA-REPERFUSION INJURY” (YISSUM RESEARCH DEVELOPMENT COMPANY OF THE HEBREW …, priority 2011, published 2014).

Key:
PC12 cells = assay: PC12 ischemic model (oxygen and glucose deprivation), cell death by LDH measurement; type: cell-based; conditions: for protection percentile: protection from cell death, FIG. 6B: identical for both compounds
Description: PC12 cells were grown in 25 cm^2 flasks in Dulbecco's modified Eagles Medium (DMEM), supplemented with 7% fetal bovine serum (FBS), 7% horse serum, […] penicillin and 100 μg/ml streptomycin. Cells were grown in humidified incubator 5% CO2, 95% air at 37° C. The medium was replaced every 2 days, and upon 70% confluence, the cells were counted and seeded for the ischemia experiments.
Approximately 1×10^6 PC12 cells/well were cultured and exposed to ischemia (oxygen and glucose deprivation=OGD) for 4.5 hr. Prior to the exposure, the growth medium was replaced with glucose-free DMEM (1 ml/well). Ischemia was performed in a closed chamber by replacement of air with 95% nitrogen/5% CO2.
Ischemic stress injury was characterized by lactate dehydrogenase (LDH) released from cells. After 4.5 hr of ischemia, a 50 μl sample of supernatant was taken from each well for LDH measurement. At the end of the ischemic insult (after 4.5 hr), glucose (at final concentration of 4.5 g/L by adding 10 μl from stock solution of 450 mg/ml per well (1 ml)) was added to the plates which underwent ischemia. The plates were then transferred to a humidified incubator and exposed to 95% air/5% CO2 at 37° C. for additional 18 hr of reoxygenation. DMEM supernatant samples (25 μl/well) were collected from each well for LDH measurements. The samples were centrifuged at 3500 rpm for 5 min, and 5 μl aliquots of supernatant was taken for LDH measurement.
For every experiment, a duplicate plate was prepared as a control study under normoxia. Cells were kept in a humidified incubator (5% CO2 and 95% air at 37° C.) in cell culture complete medium at a volume of 1 ml for 18 hr, and the same compounds were added with the same concentrations. Supernatant was collected for LDH measurement as indicated in the LDH activity measurement section below. Afterwards (at the end of the reoxygenation phase), the plates were frozen (at −70° C. for 30 min) and thawed once. 25 μl/well sample was collected and the samples were centrifuged at 3500 rpm for 5 min and then taken for LDH measurement (total).
LDH activity was determined using LDH-L kit (Pointe Scientific Inc., Michigan, USA) in the PC12 cell medium. Medium samples (5 μl) were collected at the end of the ischemic insult (after 4.5 hr) and after the reoxygenation period. In parallel, samples from the plates exposed to normoxia were collected. LDH enzymatic activity was measured in a spectrophotometer at a wavelength of 340 nm at 37° C. Data analysis was performed as follows: [OD (cycle 3)−OD (cycle 1)experiment]−[OD(3)−OD(1) control])/[OD(3)−OD(1) total]×100, and presented as percentage of total cell death.
One day before the experiment, 12-well plates were coated with 200 μg/ml type I rat tail collagen (BD Biosciences, Bedford, Mass.) and were further sterilized under UV. 1×10^6 PC12 undifferentiated cells/well were seeded on the plates and allowed to adhere overnight under regular conditions (DMEM medium high glucose 4.5 mg/ml, 5% CO2 and 95% air at 37° C.). Each experiment included 4 plates, two for normoxia and two for ischemia which underwent the same following treatment for all 4 plates.
A half hour before the onset of the ischemic insult, the antioxidant Tempol (4-hydroxy-2,2,6,6-tetramethylpiperidine-1-oxyl) (Sigma, St. Louis, Mo.) at a concentration of 0.5 mM (10 μl/well taken from a 8.6 mg/ml stock solution) or TPEN at a concentration of 3 μM and 10 μM were added to the plates. Before the experiments, the medium was replaced with DMEM glucose free medium at 1 ml volume/well. TPEN or 10 μl Tempol were again added to the appropriate wells and was maintained throughout all experiments.
Thereafter, the plates were introduced into a device inducing ischemia atmosphere with 95% nitrogen and 5% CO2 for 4.5 hr. Oxygen level was monitored online by a digital oxygen monitor showing up to 1%. At the end of OGD, 25 μl from each well was collected into 0.5 ml tubes for the LDH assay. […]

[1] = test system: neonate rat cardiomyocyte cells; assay: Hypoxia/ischemia in neonatal rat cardiomyocyte cultures, LDH release; type: cell-based; conditions: 30, 100 and 300 nm compound vs 1 μM TPEN; 150 min ischemia then reoxygenation
Description: Rat hearts (1-2 days old) were sterilely removed and bathed three times in Ca^2+- and Mg^2+-free PBS to remove excess blood cells. The hearts were minced to small fragments and then agitated in a proteolytic enzyme-RDB solution prepared from a fig tree extract as described previously (Brik et al., 1990; Shneyvays et al., 2001). The RDB was diluted 1:200 in PBS at 25° C. for a few cycles of 10 min each. The supernatant suspension containing dissociated cells, to which medium containing 10% horse serum was added, was centrifuged at 500 g for 5 min. After centrifugation, the supernatant phase was discarded, and cells were resuspended in Dulbecco's modified Eagle medium supplemented with 10% heat-inactivated horse serum and 0.5% chick embryo extract. Cell suspensions were diluted to 1×10^6 cells/ml, and 300 μl was placed in 24 well plates (4 plates) collagen/gelatin-coated plastic culture dishes. Cultures were incubated in a humidified atmosphere of 5% CO2 and 95% air at 37° C. […] The growth medium was replaced every 3 days. The experiments were performed in vitro on these cardiomyocyte cultures after 3 to 5 days. […]
LDH activity was determined using LDH-L kit (Thermo Trace, Melbourne, Australia) within the cardiac cell medium (PBS). […] LDH enzymatic activity was measured in a spectrophotometer at a wavelength of 340 nm at 30° C. […]

SMILES: Cc1ccc(CN(CCN(Cc2ccc(C)cn2)Cc2ccc(C)cn2)Cc2ccc(C)cn2)nc1 [Compound #6]
- effectiveness relative to TPEN on PC12 cell death, FIG. 5 (PC12 cells; 1 μM vs 1 μM TPEN): 2 fold
- protection of PC12 cells against ischemia insult-induced cell death vs TPEN at same concentration, FIG. 4 (PC12 cells; 1 μM vs 1 μM TPEN): significantly more potent then TPEN
- protection of PC12 cells against ischemia insult-induced cell death vs 3 μM TPEN, FIG. 4 (PC12 cells; 1 μM vs 3 μM TPEN): more effective than 3 μM TPEN
- effectiveness relative to the un-protected control group of cells, FIG. 5 (PC12 cells; 3 μM): 4 fold
- effectiveness relative to TPEN on PC12 cell death, FIG. 5 (PC12 cells; 3 μM vs TPEN at the same concentration): 3 fold
- protective effect on PC12 cell death, Compound #6 vs. Compound #4, FIG. 3 (PC12 cells; at similar concentrations (300 nM, 1 μM, 3 μM)): more effective than Compound #4
- protection percentile: protection from cell death, FIG. 6B (PC12 cells; first of two selected concentrations (not given)): 29%
- protection percentile: protection from cell death, FIG. 6B (PC12 cells; second of two selected concentrations (not given)): 63%
- dose response function, attenuating cell death following ischemia-reperfusion, vs TPEN, FIG. 6A (PC12 cells; selected concentrations): superior to the latter
- protective effect against hypoxic insult (LDH release) compared with TPEN, FIG. 1A [1]: significantly better protective outcome from hypoxia than TPEN
